Measured values as given in ChEMBL document CHEMBL5038624, “Construction and activity evaluation of novel dual-target (SE/CYP51) anti-fungal agents containing amide naphthyl structure” (Eur J Med Chem, 2022).
Converted amounts (≈) assume the structure as drawn. The source made the active and inactive calls. The calls are words filed in the database; no cut-off is given here.

Assays:
Candida albicans [1] = assay: Antifungal activity against Candida albicans SC5314 assessed as reduction in fungal growth incubated for 72 hrs by CLSI protocol based broth microdilution method; assay type: functional
Nakaseomyces glabratus = assay: Antifungal activity against Candida glabrata ATCC 0001 assessed as reduction in fungal growth incubated for 72 hrs by CLSI protocol based broth microdilution method; assay type: functional
Pichia kudriavzevii = assay: Antifungal activity against Candida krusei ATCC 6258 assessed as reduction in fungal growth incubated for 72 hrs by CLSI protocol based broth microdilution method; assay type: functional
Candida tropicalis = assay: Antifungal activity against Candida tropicalis ATCC 1369 assessed as reduction in fungal growth incubated for 72 hrs by CLSI protocol based broth microdilution method; assay type: functional
Aspergillus fumigatus = assay: Antifungal activity against Aspergillus fumigatus KM8001 assessed as reduction in fungal growth incubated for 72 hrs by CLSI protocol based broth microdilution method; assay type: functional
Candida albicans [2] = assay: Antifungal activity against Candida albicans strain 17 assessed as reduction in fungal growth incubated for 72 hrs by CLSI protocol based broth microdilution method; assay type: functional
Candida albicans [3] = assay: Antifungal activity against Candida albicans strain CaR assessed as reduction in fungal growth incubated for 72 hrs by CLSI protocol based broth microdilution method; assay type: functional
Candida albicans [4] = assay: Antifungal activity against Candida albicans strain 632 assessed as reduction in fungal growth incubated for 72 hrs by CLSI protocol based broth microdilution method; assay type: functional
Candida albicans [5] = assay: Antifungal activity against Candida albicans strain 901 assessed as reduction in fungal growth incubated for 72 hrs by CLSI protocol based broth microdilution method; assay type: functional
Candida albicans [6] = assay: Antifungal activity against Candida albicans strain 904 assessed as reduction in fungal growth incubated for 72 hrs by CLSI protocol based broth microdilution method; assay type: functional
Candida albicans [7] = assay: Induction of apoptosis against Candida albicans ATCC SC5314 assessed as viable cells measured after 48 hrs by Annexin V-FITC/propidium iodide staining based flow cytometry (reference value: 80.78 %); assay type: functional
Candida albicans [8] = assay: Induction of apoptosis against Candida albicans ATCC SC5314 assessed as mild apoptotic cells measured after 48 hrs by Annexin V-FITC/propidium iodide staining based flow cytometry (Rvb =0.29 %); assay type: functional
Candida albicans [9] = assay: Induction of apoptosis against Candida albicans ATCC SC5314 assessed as necrotic cells measured after 48 hrs by Annexin V-FITC/propidium iodide staining based flow cytometry (reference value: 18.22 %); assay type: functional
Candida albicans [10] = assay: Induction of apoptosis against Candida albicans ATCC SC5314 assessed as late apoptotic cells measured after 48 hrs by Annexin V-FITC/propidium iodide staining based flow cytometry (reference value: 0.71 %); assay type: functional
Candida albicans [11] = assay: Inhibition of SE/CYP51 in Candida albicans ATCC SC5314 assessed as ergosterol level incubated for 48 hrs by LC/MS analysis; set-up: scale not given: the % may be the effect or the level left
Candida albicans [12] = assay: Inhibition of SE/CYP51 in Candida albicans ATCC SC5314 assessed as squalene level incubated for 48 hrs by LC/MS analysis; set-up: scale not given: the % may be the effect or the level left
Candida albicans [13] = assay: Inhibition of SE/CYP51 in Candida albicans ATCC SC5314 assessed as lanosterol level incubated for 48 hrs by LC/MS analysis; set-up: scale not given: the % may be the effect or the level left
Candida albicans [14] = assay: Inhibition of SE/CYP51 in Candida albicans ATCC SC5314 assessed as eburicol level incubated for 48 hrs by LC/MS analysis; set-up: scale not given: the % may be the effect or the level left
Candida albicans [15] = assay: Inhibition of SE/CYP51 in Candida albicans ATCC SC5314 assessed as unknown sterol level incubated for 48 hrs by LC/MS analysis; set-up: scale not given: the % may be the effect or the level left
[16] = biological target: Lanosterol 14-alpha demethylase (Candida albicans (strain SC5314 / ATCC MYA-2876) (Yeast), UniProt P10613); assay: Inhibition of CYP51 in Candida albicans ATCC SC5314 measured after 30 mins by HPLC analysis
Candida albicans [17] = assay: Antifungal activity against Candida albicans ATCC SC5314 assessed as decrease in fungal cell density by fluorescence microscopy; assay type: functional, organism-based
[18] = Inhibition of SE in Candida albicans ATCC SC5314 measured after 30 mins by HPLC analysis
Candida albicans [19] = assay: Antifungal activity against Candida albicans ATCC SC5314 infected in mouse assessed as reduction on endothelial fungal infection at 4 mg/kg,ip administrated every 2 days for 14 days by hematoxylin-eosin staining based assay; assay type: functional, organism-based; conditions: time 14.0 day
[20] = Toxicity in mouse infected with Candida albicans ATCC SC5314 assessed as effect on lung at 4 mg/kg,ip administrated every 2 days for 14 days by hematoxylin-eosin staining based assay; assay type: organism-based; conditions: in vivo, 336 h, time 14 day
[21] = Toxicity in mouse infected with Candida albicans ATCC SC5314 assessed as effect on liver at 4 mg/kg,ip administrated every 2 days for 14 days by hematoxylin-eosin staining based assay; assay type: organism-based; conditions: in vivo, 336 h, time 14 day
[22] = Toxicity in mouse infected with Candida albicans ATCC SC5314 assessed as effect on spleen at 4 mg/kg,ip administrated every 2 days for 14 days by hematoxylin-eosin staining based assay; assay type: organism-based; conditions: in vivo, 336 h, time 14 day
[23] = Toxicity in mouse infected with Candida albicans ATCC SC5314 assessed as effect on kidney at 4 mg/kg,ip administrated every 2 days for 14 days by hematoxylin-eosin staining based assay; assay type: organism-based; conditions: in vivo, 336 h, time 14 day
[24] = Toxicity in mouse infected with Candida albicans ATCC SC5314 assessed as effect on heart at 4 mg/kg,ip administrated every 2 days for 14 days by hematoxylin-eosin staining based assay; assay type: organism-based; conditions: in vivo, 336 h, time 14 day
[25] = Toxicity in mouse assessed as effect on aspartate transaminase level; conditions: in vivo
[26] = Toxicity in mouse assessed as effect on alanine transaminase level; conditions: in vivo
[27] = Toxicity in mouse assessed as effect on blood urea nitrogen level; conditions: in vivo
Candida albicans [28] = assay: Antifungal activity against Candida albicans ATCC SC5314 infected in mouse assessed as decrease in fungal infection at 4 mg/kg,ip administrated every 2 days for 14 days; assay type: functional, organism-based; conditions: time 14.0 day
Mus musculus = assay: Antifungal activity against Candida albicans ATCC SC5314 infected in mouse assessed as increase in body weight at 4 mg/kg,ip administrated every 2 days for 14 days; assay type: functional, organism-based; conditions: time 14.0 day
Candida albicans [29] = assay: Antifungal activity against Candida albicans ATCC SC5314 assessed as irregular cell structure incubated for 48 hrs by TEM analysis; assay type: functional, organism-based
Candida albicans [30] = assay: Antifungal activity against Candida albicans ATCC SC5314 assessed as irregular cell structure incubated for 72 hrs by TEM analysis; assay type: functional, organism-based
Candida albicans [31] = assay: Antifungal activity against Candida albicans ATCC SC5314 assessed as disappearance of fungal cell boundaries incubated for 96 hrs by TEM analysis; assay type: functional, organism-based

Lanosterol 14-alpha demethylase, sequence (P10613 whole entry): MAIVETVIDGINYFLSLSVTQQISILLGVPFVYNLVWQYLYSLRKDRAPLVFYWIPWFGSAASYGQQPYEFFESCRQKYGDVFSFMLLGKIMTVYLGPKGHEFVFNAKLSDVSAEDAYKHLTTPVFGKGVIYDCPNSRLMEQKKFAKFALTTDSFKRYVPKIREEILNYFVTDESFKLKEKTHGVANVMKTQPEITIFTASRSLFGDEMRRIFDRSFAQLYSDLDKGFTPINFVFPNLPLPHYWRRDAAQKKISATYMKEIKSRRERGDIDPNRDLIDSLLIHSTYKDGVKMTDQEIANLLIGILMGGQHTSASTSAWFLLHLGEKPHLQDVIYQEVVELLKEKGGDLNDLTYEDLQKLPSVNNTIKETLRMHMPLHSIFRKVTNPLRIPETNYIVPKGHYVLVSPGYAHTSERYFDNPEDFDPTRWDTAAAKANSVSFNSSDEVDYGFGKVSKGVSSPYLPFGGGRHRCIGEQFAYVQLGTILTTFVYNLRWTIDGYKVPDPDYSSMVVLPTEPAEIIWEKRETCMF

OC(Cn1cncn1)(Cn1cncn1)c1ccc(F)cc1F [FLUCONAZOLE]
MIC50 (Candida albicans [1]): 0.25 µg/mL (≈ 0.816 µM)
MIC50 (Nakaseomyces glabratus): 0.5 µg/mL (≈ 1.63 µM)
MIC50 (Pichia kudriavzevii): 0.5 µg/mL (≈ 1.63 µM)
MIC50 (Candida tropicalis): 0.5 µg/mL (≈ 1.63 µM)
MIC50 (Aspergillus fumigatus): > 8 µg/mL
MIC50 (Candida albicans [2]): > 8 µg/mL
MIC50 (Candida albicans [3]): > 8 µg/mL
MIC50 (Candida albicans [4]): > 8 µg/mL
MIC50 (Candida albicans [5]): > 8 µg/mL
MIC50 (Candida albicans [6]): > 8 µg/mL
Activity (Candida albicans [7]): 74.25%
Activity (Candida albicans [8]): 0.22%
Activity (Candida albicans [9]): 24.61%
Activity (Candida albicans [10]): 0.92%
Activity (Candida albicans [11]): 26.5%
Activity (Candida albicans [12]): 1.8%
Activity (Candida albicans [13]): 23.6%
Activity (Candida albicans [14]): 41.5%
Activity (Candida albicans [15]): 6.6%
IC50 [16]: 134 nM

O=C(/C=C/c1ccc2ccccc2c1)NC(Cn1cncn1)C(=O)c1ccccc1 (centres undefined)
MIC50 (Candida albicans [1]): 0.125 µg/mL (≈ 0.315 µM)
MIC50 (Nakaseomyces glabratus): 0.125 µg/mL (≈ 0.315 µM)
MIC50 (Pichia kudriavzevii): 0.5 µg/mL (≈ 1.26 µM)
MIC50 (Candida tropicalis): 0.25 µg/mL (≈ 0.631 µM)
MIC50 (Aspergillus fumigatus): 2 µg/mL (≈ 5.04 µM)
MIC50 (Candida albicans [2]): 4 µg/mL (≈ 10.1 µM)
MIC50 (Candida albicans [3]): 2 µg/mL (≈ 5.04 µM)
MIC50 (Candida albicans [4]): 2 µg/mL (≈ 5.04 µM)
MIC50 (Candida albicans [5]): 4 µg/mL (≈ 10.1 µM)
MIC50 (Candida albicans [6]): 4 µg/mL (≈ 10.1 µM)
Activity (Candida albicans [17]): Active
Activity (Candida albicans [7]): 54.66%
Activity (Candida albicans [8]): 0.36%
Activity (Candida albicans [9]): 43.87%
Activity (Candida albicans [10]): 1.11%
Activity (Candida albicans [11]): 16.4%
Activity (Candida albicans [12]): 28.9%
Activity (Candida albicans [13]): 13.6%
Activity (Candida albicans [14]): 34.7%
Activity (Candida albicans [15]): 6.4%
IC50 [18]: 650 nM
IC50 [16]: 323 nM
Activity (Candida albicans [19]): Active
Activity [20]: Non-Toxic
Activity [21]: Non-Toxic
Activity [22]: Non-Toxic
Activity [23]: Non-Toxic
Activity [24]: Non-Toxic
Activity [25]: 107.5 IU/L
Activity [26]: 96.5 IU/L
Activity [27]: 6.8 mmol/L
Activity (Candida albicans [28]): Active
Activity (Mus musculus): Active

O=C(/C=C/c1cccc2ccccc12)NC(Cn1cncn1)c1ccccc1 (centres undefined)
MIC50 (Candida albicans [1]): 0.125 µg/mL (≈ 0.339 µM)
MIC50 (Nakaseomyces glabratus): 0.25 µg/mL (≈ 0.679 µM)
MIC50 (Pichia kudriavzevii): 0.25 µg/mL (≈ 0.679 µM)
MIC50 (Candida tropicalis): 0.125 µg/mL (≈ 0.339 µM)
MIC50 (Aspergillus fumigatus): 2 µg/mL (≈ 5.43 µM)
MIC50 (Candida albicans [2]): 2 µg/mL (≈ 5.43 µM)
MIC50 (Candida albicans [3]): 2 µg/mL (≈ 5.43 µM)
MIC50 (Candida albicans [4]): 2 µg/mL (≈ 5.43 µM)
MIC50 (Candida albicans [5]): 1 µg/mL (≈ 2.71 µM)
MIC50 (Candida albicans [6]): 2 µg/mL (≈ 5.43 µM)
Activity (Candida albicans [17]): Active
Activity (Candida albicans [7]): 52.27%
Activity (Candida albicans [8]): 0.26%
Activity (Candida albicans [9]): 46.23%
Activity (Candida albicans [10]): 1.24%
Activity (Candida albicans [29]): Active
Activity (Candida albicans [30]): Active
Activity (Candida albicans [31]): Active
Activity (Candida albicans [11]): 19.2%
Activity (Candida albicans [12]): 29.5%
Activity (Candida albicans [13]): 11.4%
Activity (Candida albicans [14]): 32.9%
Activity (Candida albicans [15]): 7%
IC50 [18]: 930 nM
IC50 [16]: 209 nM
Activity (Candida albicans [19]): Active
Activity [20]: Non-Toxic
Activity [21]: Non-Toxic
Activity [22]: Non-Toxic
Activity [23]: Non-Toxic
Activity [24]: Non-Toxic
Activity [25]: 118 IU/L
Activity [26]: 101.6 IU/L
Activity [27]: 6.1 mmol/L
Activity (Candida albicans [28]): Active
Activity (Mus musculus): Active

CN(C/C=C/c1ccccc1)Cc1cccc2ccccc12 [NAFTIFINE]
MIC50 (Candida albicans [1]): 0.5 µg/mL (≈ 1.74 µM)
MIC50 (Nakaseomyces glabratus): 0.5 µg/mL (≈ 1.74 µM)
MIC50 (Pichia kudriavzevii): 0.25 µg/mL (≈ 0.87 µM)
MIC50 (Candida tropicalis): 0.5 µg/mL (≈ 1.74 µM)
MIC50 (Aspergillus fumigatus): 4 µg/mL (≈ 13.9 µM)
MIC50 (Candida albicans [2]): 4 µg/mL (≈ 13.9 µM)
MIC50 (Candida albicans [3]): > 8 µg/mL
MIC50 (Candida albicans [4]): 4 µg/mL (≈ 13.9 µM)
MIC50 (Candida albicans [5]): > 8 µg/mL
MIC50 (Candida albicans [6]): 4 µg/mL (≈ 13.9 µM)
Activity (Candida albicans [7]): 38.54%
Activity (Candida albicans [8]): 0.05%
Activity (Candida albicans [9]): 60.92%
Activity (Candida albicans [10]): 0.49%
Activity (Candida albicans [11]): 24.3%
Activity (Candida albicans [12]): 49.5%
Activity (Candida albicans [13]): 15.2%
Activity (Candida albicans [14]): 5.2%
Activity (Candida albicans [15]): 5.8%
IC50 [18]: 469 nM
